Laboratory results from patent publication US5760213A, “Immunoactivating agent” (Tayca Corporation, priority 1995, dated 1998).

What was measured:
rats = conditions: oral administration to rats, cited from earlier work
TNF = assay: Measurement of Tumor Necrosis Factor (TNF) inducibility; assay type: in vivo; conditions: serum 90 minutes after injection, 100 μg/0.2 ml intravenously, MDP-primed C3H/He mice; average value ± standard deviation
Experimental: (§1) First, 1 wt % aqueous solutions of the respective polysaccharides obtained in the above Preparation Examples were prepared. A cationic ion exchange resin was added to each solution to convert the counter ions of carboxyl group of glucuronic acid residue in the polysaccharide into hydrogen ions, and then the solution was neutralized with sodium hydroxide to replace the counter ions with sodium ions, then passed through a 0.2 μm-opening membrane filter and freeze-dried. The resulting polysaccharide preparations were subjected to the following tests.
(§2) These mice were left under observation for anaphylaxis-like reaction and sudden death. After 90 minutes from the injection, blood was collected from the surviving mice to determine TNF and IL-6 activities in the serum. TNF activity was calculated on the basis of the ratio of activity of the actinomycin D-treated L-929 cells to that of rHuTNF (human recombination TNF) used as control, with the killing action of the said L-929 cells being taken as index, and indicated by ng/ml. In the case of IL-6 activity, the IL-6 dependent MH60.BSF2 cell growth stimulating action was taken as index, and the IL-6 activity was calculated on the basis of the calibration curves obtained from the test of IL-6 and control rHuIL-6, and indicated by U/ml.

[1] = tested on: myeloma cell strain NS-1/Z; assay: Determination of Cytotoxic T Cell (CTL) Inducibility; assay type: in vivo, BALB/c mouse (target cells); C3H mice (effector cells); conditions: 20 mg/kg/day, subcutaneous, four times, relative to physiological saline control
Experimental: as §1
The following test was conducted on the C3H mice and BALB/c mice which are different in H-2 haplotype.
The spleen lymphocytes (2×10^7) of the BALB/c mice were immunized in the abdominal cavities of the C3H mice (4 mice per group: N=4). Each of the test specimens shown in Table 5 was given subcutaneously to the back of each of the said C3H mice at a dose of 50 mg/kg or 20 mg/kg, once a day, four times in all, from the day before immunization till 2 days after immunization. As control, physiological saline was used instead of the test specimens. After 9 days, the spleen lymphocyte suspension was collected from the C3H mice. This lymphocyte suspension contained the cytotoxic T cells (hereinafter referred to as effector cells and abbreviated as E). Then, 10^4 cells of myeloma cell strain NS-1/Z (hereinafter abbreviated as T) derived from the BALB/c mouse into which β-galactosidase (β-gal) of Escherichia coli had been introduced, were mixed as target cells with the effector cells so that the E/T ratio would become 30, 60 or 120, and the mixture was kept in 0.2 ml of a medium RPMI-1640 at 37° C. for 4 hours. The activity of β-gal released into the supernatant by destruction of the target cells was measured, and the cytotoxicity by CTL was calculated from the following equation. [formula] A: released β-gal activity B: naturally released β-gal activity (enzyme release observed when no effector cells are present)
C: overall β-gal activity (T used is dissolved in 0.0425% Triton-X100 and the overall enzyme activity is measured.) [formula]

IL-6 = assay: Measurement of Interleukin (IL-6) inducibility; assay type: in vivo; conditions: serum 90 minutes after injection, 100 μg/0.2 ml intravenously, MDP-primed C3H/He mice; average value ± standard deviation
Experimental: as §1, §2

C3H/He mice = assay: Observation for anaphylaxis-like reaction and sudden death in MDP-primed mice; assay type: in vivo; conditions: 100 μg/0.2 ml intravenously, 4 hours after MDP
Experimental: as §1, §2

Sarcoma 180 cancer cells = assay: Determination of Cancer Growth Inhibitory Effect (Sarcoma 180 solid cancer in ICR mice); assay type: in vivo; conditions: Sarcoma 180 subcutaneous graft, 30 mg/kg per day intraperitoneally for 10 days, tumor weight after 5 weeks
Experimental: as §1

Compound: O=P1(N(CCCl)CCCl)NCCCO1 (stereo not shown) [Cyclophosphide]
- LD50 (female) (rats; female): 118 mg/kg
- LD50 (male) (rats; male): 100 mg/kg

Compound: Schizophyllan
- TNF (TNF): 0 ± 0 ng/mL
- Immunoactivating activity, E/T = 30 ([1]; E/T = 30): 5.5
- Immunoactivating activity, E/T = 60 ([1]; E/T = 60): 2.0
- Immunoactivating activity, E/T = 120 ([1]; E/T = 120): 1.7
- IL-6 (IL-6): 14.1 ± 2.2 U/ml
- Anaphylaxis-like reaction (C3H/He mice): 0/3
- Sudden death (C3H/He mice): 0/3

Compound: Lentinan
- Cancer cell growth inhibition percentage (Sarcoma 180 cancer cells): 100%
